{"source": "patent US11311646B2", "about": "“Therapeutic material” (ASTON UNIVERSITY, priority 2016, dated 2022)", "key": {"[1]": {"system": "Human osteosarcoma (Saos-2) cells", "assay": "MTT viability assay, Saos-2", "type": "cell-based", "conditions": "10 nm etoposide, 72 hours", "description": "Human osteosarcoma (Saos-2) cells were purchased from the American Tissue Culture Collection and maintained in McCoy's 5A medium containing 1.5 mM L-glutamine and 2200 mg/L sodium bicarbonate. Media was supplemented with 1% penicillin, streptomycin and 15% foetal bovine serum (FBS).\n(§1) Stock solutions of conditioned media were prepared by dissolving glass particles (from Example 1-3) in complete McCoy's 5A medium to treat Saos-2 cells and Clonetics OGM Osteoblast complete growth media to treat osteoblasts.\n(§2) Stock solutions were prepared at a concentration of 10 mg/ml and left to incubate in a shaker incubator at 250 rpm at 37° C. for 24 hours. Following the 24 hour incubation period, stock solutions were filtered using 0.2 micron syringe filter. 3 ml samples were excluded to record stock solution pH values following glass dissolution.\n(§3) Cell cytotoxicity was analysed using MTT viability assay (Thermo Fisher), where 5000 cells per well of both Saos-2 and NHOst cells were cultured using conditioned media containing 10 mg/ml respective glass compositions (Examples 1-3), for a period of 72 hours. […] Metabolically active cells reduce MTT to formazan and after formazan extraction the optical density was measured using a spectrophotometer (at 570 nm). […]"}, "[2]": {"system": "Human osteoblasts (NHOst)", "assay": "MTT viability assay, NHOst", "type": "cell-based", "conditions": "10 nm etoposide, 72 hours", "description": "Human osteoblasts (NHOst) were purchased from Lonza and cultured in Clonetics OGM Osteoblast growth media supplemented with 10% FBS, 1% L-glutamine and 1% penicillin, streptomycin. Both cell lines were maintained at 37° C. in a humidified atmosphere of 5% CO2/95% air.\nas §1, §2, §3"}}, "data": [{"smiles": "COc1cc([C@@H]2c3cc4c(cc3[C@@H](O[C@@H]3O[C@@H]5CO[C@@H](C)O[C@H]5[C@H](O)[C@H]3O)[C@H]3COC(=O)[C@H]23)OCO4)cc(OC)c1O", "note": "[etoposide, Etoposide]", "values": [{"measurement": "Saos-2 cell death, positive control", "setting": "[1]", "value": "inducer of cell death (p<0.0001)"}, {"measurement": "NHOst cell death, positive control", "setting": "[2]", "value": "inducer of cell death (p<0.0001)"}]}]}
